Experimental data as given in PubChem BioAssay (NCI).
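Briefly, cells in 96-well plates were exposed to five compound concentrations for 48 h, and endpoints were estimated by linear interpolation. GI50 marks 50% less growth. TGI denotes the concentration required for complete inhibition of growth.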

What was measured:
Experiment in all cases: inhibition of tumour cell growth, NCI panel, 48 h
786-0 renal = system: 786-0 renal
A498 renal = system: A498 renal
ACHN renal = system: ACHN renal
BT-549 breast = system: BT-549 breast
CAKI-1 renal = system: CAKI-1 renal
CCRF-CEM leukemia = system: CCRF-CEM leukemia
DU-145 prostate = system: DU-145 prostate
EKVX NSCLC = system: EKVX NSCLC
HCC-2998 colon = system: HCC-2998 colon
HCT-116 colon = system: HCT-116 colon
HCT-15 colon = system: HCT-15 colon
HL-60(TB) leukemia = system: HL-60(TB) leukemia
HOP-62 NSCLC = system: HOP-62 NSCLC
HOP-92 NSCLC = system: HOP-92 NSCLC
HS 578T breast = system: HS 578T breast
HT29 colon = system: HT29 colon
IGROV1 ovarian = system: IGROV1 ovarian
K-562 leukemia = system: K-562 leukemia
KM12 colon = system: KM12 colon
LOX IMVI melanoma = system: LOX IMVI melanoma
M14 melanoma = system: M14 melanoma
MALME-3M melanoma = system: MALME-3M melanoma
MCF7 breast = system: MCF7 breast
MDA-MB-231 breast = system: MDA-MB-231 breast
MDA-MB-435 = system: MDA-MB-435
MDA-MB-468 breast = system: MDA-MB-468 breast
MOLT-4 leukemia = system: MOLT-4 leukemia
NCI-H226 lung = system: NCI-H226 lung
NCI-H23 lung = system: NCI-H23 lung

Compound: C=C(C)[C@@H]1CC[C@]2(C(=O)OC)CC[C@]3(C)[C@H](CC[C@@H]4[C@@]5(C)CC[C@H](N)C(C)(C)[C@@H]5CC[C@]43C)[C@@H]12
- GI50 (786-0 renal): 1.7 µM
- TGI (786-0 renal): 3.33 µM
- GI50 (A498 renal): 1.45 µM
- TGI (A498 renal): 2.78 µM
- GI50 (ACHN renal): 1.7 µM
- TGI (ACHN renal): 3.07 µM
- GI50 (BT-549 breast): 2.47 µM
- TGI (BT-549 breast): 5.59 µM
- GI50 (CAKI-1 renal): 1.62 µM
- TGI (CAKI-1 renal): 3.02 µM
- GI50 (CCRF-CEM leukemia): 1.8 µM
- TGI (CCRF-CEM leukemia): 4.68 µM
- GI50 (DU-145 prostate): 1.85 µM
- TGI (DU-145 prostate): 3.37 µM
- GI50 (EKVX NSCLC): 1.83 µM
- TGI (EKVX NSCLC): 3.32 µM
- GI50 (HCC-2998 colon): 1.65 µM
- TGI (HCC-2998 colon): 3.07 µM
- GI50 (HCT-116 colon): 1.48 µM
- TGI (HCT-116 colon): 3.26 µM
- GI50 (HCT-15 colon): 1.64 µM
- TGI (HCT-15 colon): 3.05 µM
- GI50 (HL-60(TB) leukemia): 1.44 µM
- TGI (HL-60(TB) leukemia): 3.83 µM
- GI50 (HOP-62 NSCLC): 1.83 µM
- TGI (HOP-62 NSCLC): 3.55 µM
- GI50 (HOP-92 NSCLC): 1.58 µM
- TGI (HOP-92 NSCLC): 3.13 µM
- GI50 (HS 578T breast): 2 µM
- TGI (HS 578T breast): 4.29 µM
- GI50 (HT29 colon): 1.83 µM
- TGI (HT29 colon): 3.51 µM
- GI50 (IGROV1 ovarian): 1.74 µM
- TGI (IGROV1 ovarian): 3.18 µM
- GI50 (K-562 leukemia): 0.711 µM
- TGI (K-562 leukemia): 12.7 µM
- GI50 (KM12 colon): 1.77 µM
- TGI (KM12 colon): 3.31 µM
- GI50 (LOX IMVI melanoma): 1.33 µM
- TGI (LOX IMVI melanoma): 2.64 µM
- GI50 (M14 melanoma): 1.99 µM
- TGI (M14 melanoma): 4.28 µM
- GI50 (MALME-3M melanoma): 1.71 µM
- TGI (MALME-3M melanoma): 3.09 µM
- GI50 (MCF7 breast): 1.05 µM
- TGI (MCF7 breast): 2.34 µM
- GI50 (MDA-MB-231 breast): 1.78 µM
- TGI (MDA-MB-231 breast): 3.19 µM
- GI50 (MDA-MB-435): 1.62 µM
- TGI (MDA-MB-435): 3.1 µM
- GI50 (MDA-MB-468 breast): 1.77 µM
- TGI (MDA-MB-468 breast): 3.26 µM
- GI50 (MOLT-4 leukemia): 2.5 µM
- TGI (MOLT-4 leukemia): 6.02 µM
- GI50 (NCI-H226 lung): 1.94 µM
- TGI (NCI-H226 lung): 3.77 µM
- GI50 (NCI-H23 lung): 1.78 µM
